Test results from paper PMC4380424, “Prediction of Overall In Vitro Microsomal Stability of Drug Candidates Based on Molecular Modeling and Support Vector Machines. Case Study of Novel Arylpiperazines Derivatives” (PLoS ONE, 2015).
“Also recorded” adds a separate entry of the source.

Assays:
[1] = Metabolic stability: in vitro incubation with human liver microsomes and NADPH, LC-MS quantification; conditions: pooled human liver microsomes, pH 7.4
Experimental: (§1) The studied compounds were dissolved in acetonitrile (compounds 1, 3, 4, 10, 18, 19, 21, 22, 23, 24, 25, 26, 27, 28, 29), water (compounds 2, 7, 9, 11, 12, 13, 14, 15, 16, 17, 20, 30) or dimethyl sulfoxide (compounds 5 and 6), and diluted in phosphate buffer (pH = 7.4) to obtain 100 μM solutions. A 10 mM NADPH solution in phosphate buffer was prepared before incubations. Final concentrations in the incubation mixes were 5 μM of studied compound, 500 μM of NADPH and 1 mg/ml of human liver microsomes.
(§2) Using a MyBlock mini dry-bath (Benchmark Scientific, NJ, USA), mixtures without the compounds were subjected to a 5 min pre-incubation at 37°C before each experiment. Incubations were initiated with the addition of 15 μL of the compound solution to the mixture. The experiment lasted for 30 min. Immediately after addition of the compound, 50 μL of incubation mixture was collected and mixed with 50 μL of the stopping reagent, which was ice-cold acetonitrile containing 5 μM buspirone as internal standard. The next sample collection points were after 5, 10, 15 and 30 minutes of incubation time. After stopping the reaction, suspensions were centrifuged for 10 minutes at 7378 g using a Microfuge 16 (Beckman Instruments, Fullerton, CA, USA). Subsequently, 70 μL of supernatant thus obtained was directly analyzed using LC-MS (Agilent Technologies, Santa Clara, CA, USA).
(§3) The incubation and LC-MS analysis were repeated twice for each compound. To ensure that the biological conditions were valid, and no compound degradation occurs related to the addition of the enzyme solution, a negative control for each derivative was also performed.
(§4) The LC analysis was carried out using an Agilent 1260 Infinity system (Agilent Technologies) consisting of a binary pump, autosampler, temperature-controlled column compartment and UV variable wavelength detector, coupled with an Agilent 6120 Single Quad mass detector. Incubation samples were separated at 40°C on a Poroshell 120 EC-C-18 column (3 mm x 100 mm, 2.7 μm), provided by Agilent Technologies. The data were collected and processed in ChemStation software (v. B. 04.03, Agilent Technologies, Santa Clara, CA, USA). The injection volume was 10 μL. Mobile phases consisted of deionized water (phase A) and acetonitrile (phase B), both with 10 mM ammonium formate buffer (pH = 3) added. Gradient elution program was as follows: 0–15 min—5%-100% B, 15–16 min—100% B, 16–16.10 min—100%-5% B, 16.10–21 min 5% B. The flow rate was 0.5 ml/min. The total time for a single analysis was 21 minutes. MS detection was performed using an Agilent 6120 Single Quad mass spectrometer (Agilent Technologies) equipped with an electrospray (ESI) ion source. A nebulizer (pressure set to 40 psig) allowed for the gas phase ionization of studied compounds. Nitrogen (NM32LA Nitrogen Generator, Peak Scientific Instruments, Billerica, MA, USA) was used as the drying gas, with a flow rate of 10 L/min and a drying temperature of 300°C. Capillary voltage was set to 3000 V. Fragmentor voltage was set to 150 V. Chromatograms were collected with the use of single ion monitoring (SIM) in positive ion mode.
(§5) Half-life evaluation requires a compound depletion plot, which is obtained by plotting the time of incubation against the logarithmic peak area ratio (the ratio of the compound peak area to the internal standard peak area). […] After the elimination rate constant was designated, half-lives were calculated (Equation 1).

[2] = LC-Q-TOF-MS/MS metabolite structure elucidation after microsomal incubation; conditions: HLM + NADPH incubation
Experimental: as §1, §2
Tandem mass spectra of the metabolites were obtained with the use of an Agilent 1290 LC system connected to a hybrid Q-TOF tandem mass spectrometer (Agilent 6540 Series Accurate Mass Q-TOF-MS/MS). […] The Dual ESI source was operated in positive ion mode with the following conditions: the fragmentor voltage was set at 150V, nebulizer gas was set at 40 psig, capillary voltage was set at 3000 V, drying gas flow rate and temperature were set at 10 L/min and 300°C, respectively. The MS was operated in targeted MS/MS acquisition mode with a fixed collision energy of 35 V and a mass range of 30–1700 m/z. […] The instrument was operated in High Resolution mode (4 GHz). The Q-TOF was calibrated using reference masses 121.050873, 149.02332 and 922.009798 during the analysis run to ensure constant mass correction.
Several derivatives that varied in their degrees of non-pharmacophore ring saturation, R, R’ substituents and pharmacophore parts (2-pyridyl, 2-pyrimidynyl, phenyl-CF3), were chosen to collect fragmentation spectra using a Q-TOF tandem mass spectrometer and LC conditions as described earlier. […] The compounds’ structures and chromatographs were submitted to MassHunter Workstation Software MetaboliteID ver. B.02.00 build 2.0.121 to detect possible biotransformation products.

in vitro = conditions: human, microsomes, pH 7.4
Experimental: as §1, §2, §3, §4, §5

Row | Structure (SMILES) | half-life at 5 μM [1] | Type of biotransformation, metabolite M1 [2] | Type of biotransformation, metabolite M2 [2] | Type of biotransformation, metabolite M3 [2] | half-life at 5 μM (in vitro)
1 | O=C1CC2(CCCC2)CC(=O)N1CCCCN1CCN(c2ncccn2)CC1 [Buspirone, buspirone, reference compound] | 6.59 min | – | – | – | –
2 | O=c1c(-c2ccccc2)c2ccccn2c(=O)n1CCCCN1CCN(c2ncccn2)CC1 [Compound 6] | 5.29 min | hydroxylation | double hydroxylation in pharmacophore part | – | –
3 | COc1ccccc1-c1c(=O)n(CCCCN2CCN(c3ncccn3)CC2)c(=O)n2ccccc12 [Compound 11] | 4 min | Hydroxylation in the pharmacophore part | hydroxylation | O-demethylation reaction along with hydroxylation in the pharmacophore part; also recorded: O-demethylation and hydroxylation | –
4 | O=C1C(c2ccccc2)C2CCCCN2C(=O)N1CCCCN1CCN(c2ccccc2F)CC1 (stereo not shown) [Compound 25] | – | – | – | – | 5.77 min
5 | O=c1c(-c2ccccc2)c2n(c(=O)n1CCCCN1CCN(c3ncccn3)CC1)CCCC2 [Compound 30] | 9.32 min | hydroxylation of the non-pharmacophore part of the molecules; also recorded: hydroxylation in both pharmacophore and non-pharmacophore site | hydroxylation of the non-pharmacophore part of the molecules; also recorded: Hydroxylation in the non-pharmacophore part of the molecule; also recorded: hydroxylation | hydroxylation | –
